Several values for one entry are separate records, joined by “and”; a condition that tells them apart may be missing. Equal entries are not always repeated.
Key:
Type in all cases: cell-based
320 non-olfactory GPCRs [1] = biological target: T1, 320 non-olfactory GPCRs (Homo sapiens, UniProt P50391); conditions: receptor NPY4R; replicate values, Fig_4g
T1 construct: expressed in transfected cells; host or cells: HTLA cells

320 non-olfactory GPCRs [2] = biological target: T2, 320 non-olfactory GPCRs (Homo sapiens, UniProt Q96P66)
T2 construct: expressed in transfected cells; host or cells: HTLA cells

320 non-olfactory GPCRs [3] = biological target: 320 non-olfactory GPCRs (Homo sapiens, UniProt O43193); conditions: receptor MLNR; replicate values, Fig_4g
320 non-olfactory GPCRs [4] = biological target: T3, 320 non-olfactory GPCRs (Homo sapiens, UniProt P49286); conditions: receptor MTNR1B; replicate values, Fig_4g
T3 construct: expressed in transfected cells; host or cells: HTLA cells
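For Fold of Basal in this document: compound tested at 1 µM final concentration.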
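For GPCRome agonism screen response in this document: fold over basal response of each receptor without drug.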

T2 sequence (Q96P66 whole entry): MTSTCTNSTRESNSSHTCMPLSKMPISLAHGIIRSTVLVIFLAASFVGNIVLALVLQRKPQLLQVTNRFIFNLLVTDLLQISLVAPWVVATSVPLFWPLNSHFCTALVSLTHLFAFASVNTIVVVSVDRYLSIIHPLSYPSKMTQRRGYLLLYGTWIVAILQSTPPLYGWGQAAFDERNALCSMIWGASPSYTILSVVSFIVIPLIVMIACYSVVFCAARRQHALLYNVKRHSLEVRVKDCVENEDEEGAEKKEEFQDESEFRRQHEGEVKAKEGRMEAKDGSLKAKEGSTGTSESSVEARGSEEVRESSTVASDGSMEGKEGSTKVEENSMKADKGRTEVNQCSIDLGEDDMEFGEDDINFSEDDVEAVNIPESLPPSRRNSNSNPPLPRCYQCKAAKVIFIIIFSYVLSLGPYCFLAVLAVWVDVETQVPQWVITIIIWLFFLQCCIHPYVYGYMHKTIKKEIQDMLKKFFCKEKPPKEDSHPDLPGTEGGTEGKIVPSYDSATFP
Chain of 320 non-olfactory GPCRs (Homo sapiens, UniProt O43193) (O43193 whole entry): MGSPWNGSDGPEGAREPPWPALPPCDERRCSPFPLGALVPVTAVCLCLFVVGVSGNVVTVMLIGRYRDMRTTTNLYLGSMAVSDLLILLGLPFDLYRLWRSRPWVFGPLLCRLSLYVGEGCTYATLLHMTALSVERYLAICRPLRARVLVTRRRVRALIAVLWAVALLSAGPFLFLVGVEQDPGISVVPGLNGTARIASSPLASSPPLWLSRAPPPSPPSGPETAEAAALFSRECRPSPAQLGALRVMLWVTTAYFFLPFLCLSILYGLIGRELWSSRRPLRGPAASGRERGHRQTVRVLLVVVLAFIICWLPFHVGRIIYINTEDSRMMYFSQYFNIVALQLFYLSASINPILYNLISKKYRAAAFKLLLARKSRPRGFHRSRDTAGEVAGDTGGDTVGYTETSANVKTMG
T1 sequence (P50391 whole entry): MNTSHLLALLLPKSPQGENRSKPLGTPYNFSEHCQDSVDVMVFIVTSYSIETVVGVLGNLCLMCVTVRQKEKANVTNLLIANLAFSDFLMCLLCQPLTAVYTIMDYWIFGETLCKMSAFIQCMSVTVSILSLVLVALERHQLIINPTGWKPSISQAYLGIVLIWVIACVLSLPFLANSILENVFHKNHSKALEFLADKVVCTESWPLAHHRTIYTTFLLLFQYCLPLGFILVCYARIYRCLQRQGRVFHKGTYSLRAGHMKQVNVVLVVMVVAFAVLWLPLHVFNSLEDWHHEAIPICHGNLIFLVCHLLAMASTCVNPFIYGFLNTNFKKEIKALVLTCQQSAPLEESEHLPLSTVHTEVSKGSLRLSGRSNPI
T3 sequence (P49286 whole entry): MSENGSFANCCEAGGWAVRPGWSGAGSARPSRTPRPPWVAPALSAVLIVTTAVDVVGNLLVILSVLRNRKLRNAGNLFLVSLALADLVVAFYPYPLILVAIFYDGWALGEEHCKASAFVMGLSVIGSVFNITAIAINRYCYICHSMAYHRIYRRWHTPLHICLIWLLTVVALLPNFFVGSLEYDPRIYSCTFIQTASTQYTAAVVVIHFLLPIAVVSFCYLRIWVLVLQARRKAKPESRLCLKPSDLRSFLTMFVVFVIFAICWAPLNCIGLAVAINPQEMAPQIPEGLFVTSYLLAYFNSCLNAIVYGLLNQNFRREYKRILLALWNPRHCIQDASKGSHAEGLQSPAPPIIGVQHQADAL

SMILES: CCOc1cccc2cc(C(C)NCC3(O)CCCCC3)oc12 (stereo not shown) [O4LE6]
- GPCRome agonism screen response (320 non-olfactory GPCRs [1]): 0.9177 and 0.7118 and 1.258 and 0.6362
- Fold of Basal (320 non-olfactory GPCRs [2]): 1.216 and 1.226 and 0.7864 and 1.078
- GPCRome agonism screen response (320 non-olfactory GPCRs [3]): 1.48 and 1.279 and 0.7077 and 1.039
- GPCRome agonism screen response (320 non-olfactory GPCRs [4]): 1.769 and 0.5073 and 1.312 and 1.409

From publication PMC7044277 (Nature Communications, 2020)
